Source: ChEMBL document CHEMBL1201862, “PubChem BioAssay data set” (2004)
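Exposure lasted 48 hours, with cells grown in 96-well plates and compounds tested at five concentrations. GI50: concentration for 50% inhibition of growth.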 Calls of active or inactive are those of the source. Rule as the data show it: active = GI50 up to about 1.1 µM and inactive = higher.

How the values were obtained:
Assay in all cases: NCI tumour cell line growth inhibition, 48 h
LXFL 529 = tested on: LXFL 529
RXF 393 = tested on: RXF 393
SW-620 = tested on: SW-620
SF-295 = tested on: SF-295
SN12C = tested on: SN12C
UACC-62 = tested on: UACC-62
ACHN = tested on: ACHN
786-0 = tested on: 786-0
U-251 = tested on: U-251
SR = tested on: SR
DLD-1 = tested on: DLD-1
XF498 = tested on: XF498
A498 = tested on: A498
UACC-257 = tested on: UACC-257
OVCAR-3 = tested on: OVCAR-3
COLO 205 = tested on: COLO 205
M14 = tested on: M14
HOP-18 = tested on: HOP-18
DMS-114 = tested on: DMS-114
KM12 = tested on: KM12
OVCAR-8 = tested on: OVCAR-8
A549 = tested on: A549
SK-OV-3 = tested on: SK-OV-3
SK-MEL-5 = tested on: SK-MEL-5
HCT-116 = tested on: HCT-116
UO-31 = tested on: UO-31
HOP-62 = tested on: HOP-62
NCI-H460 = tested on: NCI-H460
OVCAR-5 = tested on: OVCAR-5
HOP-92 = tested on: HOP-92
TK-10 = tested on: TK-10
SF-539 = tested on: SF-539
SNB-78 = tested on: SNB-78
EKVX = tested on: EKVX
LOX IMVI = tested on: LOX IMVI
RXF 631 = tested on: RXF 631
SNB-75 = tested on: SNB-75
NCI-H226 = tested on: NCI-H226
MOLT-4 = tested on: MOLT-4
DMS-273 = tested on: DMS-273
SF-268 = tested on: SF-268
NCI-H522 = tested on: NCI-H522
KM-20L2 = tested on: KM-20L2
M19-MEL = tested on: M19-MEL
IGROV-1 = tested on: IGROV-1
CAKI-1 = tested on: CAKI-1
Malme-3M = tested on: Malme-3M
HL-60 = tested on: HL-60
HCC 2998 = tested on: HCC 2998
HCT-15 = tested on: HCT-15
NCI-H23 = tested on: NCI-H23
K562 = tested on: K562
CCRF-CEM = tested on: CCRF-CEM
SK-MEL-28 = tested on: SK-MEL-28
SK-MEL-2 = tested on: SK-MEL-2
OVCAR-4 = tested on: OVCAR-4
SNB-19 = tested on: SNB-19
BT-549 = tested on: BT-549
MDA-N = tested on: MDA-N
HT-29 = tested on: HT-29
Hs-578T = tested on: Hs-578T
RPMI-8226 = tested on: RPMI-8226
MDA-MB-231 = tested on: MDA-MB-231
MCF7 = tested on: MCF7
PC-3 = tested on: PC-3
NCI/ADR-RES = tested on: NCI/ADR-RES
T47D = tested on: T47D
DU-145 = tested on: DU-145
MDA-MB-435 = tested on: MDA-MB-435

With `Cc1cc([N+](=O)[O-])ccc1Sc1c2ccccc2nc2cc(Cl)ccc12` the GI50 (LXFL 529) was 31 µM (inactive), the GI50 (RXF 393) was 84.5 µM (inactive) and the GI50 (SW-620) was 31.2 µM (inactive). The GI50 (SF-295) was 45.8 µM (inactive), the GI50 (SN12C) was 30.8 µM (inactive) and the GI50 (UACC-62) was 34.5 µM (inactive). The GI50 (ACHN) was 44.9 µM (inactive), the GI50 (786-0) was 35.2 µM (inactive) and the GI50 (U-251) was 27.8 µM (inactive). The GI50 (SR) was 26.9 µM (inactive), the GI50 (DLD-1) was 36.3 µM (inactive) and the GI50 (XF498) was 23 µM (inactive). For the same compound, the GI50 (A498) was > 100 µM (inactive), the GI50 (UACC-257) was 73.6 µM (inactive) and the GI50 (OVCAR-3) was 28.3 µM (inactive). For the same compound, the GI50 (COLO 205) was 38.4 µM (inactive), the GI50 (M14) was 40.8 µM (inactive) and the GI50 (HOP-18) was 34.8 µM (inactive). For the same compound, the GI50 (DMS-114) was 25.4 µM (inactive), the GI50 (KM12) was 18.6 µM (inactive) and the GI50 (OVCAR-8) was 21.8 µM (inactive). The GI50 (A549) was 46.5 µM (inactive), the GI50 (SK-OV-3) was 47.2 µM (inactive) and the GI50 (SK-MEL-5) was 39.4 µM (inactive). The GI50 (HCT-116) was 28.1 µM (inactive), the GI50 (UO-31) was 45.2 µM (inactive) and the GI50 (HOP-62) was 73.5 µM (inactive). For the same compound, the GI50 (NCI-H460) was 36.6 µM (inactive), the GI50 (OVCAR-5) was 56.2 µM (inactive) and the GI50 (HOP-92) was 23.4 µM (inactive). For the same compound, the GI50 (TK-10) was 55.6 µM (inactive), the GI50 (SF-539) was 25.9 µM (inactive) and the GI50 (SNB-78) was 41.3 µM (inactive). For the same compound, the GI50 (EKVX) was 40.6 µM (inactive), the GI50 (LOX IMVI) was 24.9 µM (inactive) and the GI50 (RXF 631) was 49.1 µM (inactive). For the same compound, the GI50 (SNB-75) was 30.8 µM (inactive), the GI50 (NCI-H226) was 61.5 µM (inactive) and the GI50 (MOLT-4) was 21.3 µM (inactive). The GI50 (DMS-273) was 26.9 µM (inactive), the GI50 (SF-268) was 29.6 µM (inactive) and the GI50 (NCI-H522) was 27.7 µM (inactive). For the same compound, the GI50 (KM-20L2) was 20.4 µM (inactive), the GI50 (M19-MEL) was 43 µM (inactive) and the GI50 (IGROV-1) was 46.2 µM (inactive). For the same compound, the GI50 (CAKI-1) was 26.2 µM (inactive), the GI50 (Malme-3M) was > 100 µM (inactive) and the GI50 (HL-60) was 5.78 µM (inactive). The GI50 (HCC 2998) was > 100 µM (inactive), the GI50 (HCT-15) was 51.4 µM and the GI50 (NCI-H23) was 28.8 µM (inactive). For the same compound, the GI50 (K562) was 36.1 µM (inactive), the GI50 (CCRF-CEM) was 28.1 µM (inactive) and the GI50 (SK-MEL-28) was > 100 µM (inactive). For the same compound, the GI50 (SK-MEL-2) was 22.9 µM (inactive), the GI50 (OVCAR-4) was 41.4 µM (inactive) and the GI50 (SNB-19) was 41.3 µM (inactive).
With `COc1ccccc1/C=C1\CCC(CN2CCOCC2)C1=O` (stereo unspecified) the GI50 (LXFL 529) was 3.28 µM (inactive), the GI50 (RXF 393) was 16.8 µM (inactive) and the GI50 (BT-549) was 12.6 µM (inactive). The GI50 (MDA-N) was 13.8 µM (inactive), the GI50 (SW-620) was 4.16 µM (inactive) and the GI50 (SF-295) was 19.2 µM (inactive). The GI50 (HT-29) was 11 µM (inactive), the GI50 (SN12C) was 7.5 µM (inactive) and the GI50 (UACC-62) was 16.4 µM (inactive). The GI50 (Hs-578T) was 10.8 µM (inactive), the GI50 (ACHN) was 16.1 µM (inactive) and the GI50 (786-0) was 3.02 µM (inactive). The GI50 (U-251) was 18.7 µM (inactive), the GI50 (RPMI-8226) was 1.32 µM (inactive) and the GI50 (SR) was 1.74 µM (inactive). The GI50 (DLD-1) was 3.84 µM (inactive), the GI50 (XF498) was 16.4 µM (inactive) and the GI50 (A498) was 18.2 µM (inactive). For the same compound, the GI50 (UACC-257) was 11.6 µM (inactive), the GI50 (OVCAR-3) was 5.57 µM (inactive) and the GI50 (COLO 205) was 4.47 µM (inactive). The GI50 (M14) was 6.15 µM (inactive), the GI50 (HOP-18) was 17.9 µM (inactive) and the GI50 (MDA-MB-231) was 3.68 µM (inactive). The GI50 (DMS-114) was 16 µM (inactive), the GI50 (KM12) was 3.71 µM (inactive) and the GI50 (MCF7) was 5.14 µM (inactive). For the same compound, the GI50 (OVCAR-8) was 5.43 µM (inactive), the GI50 (A549) was 21.9 µM (inactive) and the GI50 (SK-OV-3) was > 43.7 µM (inactive). For the same compound, the GI50 (SK-MEL-5) was 15 µM (inactive), the GI50 (HCT-116) was 6.92 µM (inactive) and the GI50 (PC-3) was 15.2 µM (inactive). The GI50 (UO-31) was 16.6 µM (inactive), the GI50 (HOP-62) was 25.5 µM (inactive) and the GI50 (NCI-H460) was 18.2 µM (inactive). The GI50 (OVCAR-5) was 18.4 µM (inactive), the GI50 (HOP-92) was 18.4 µM (inactive) and the GI50 (TK-10) was 3.49 µM (inactive). For the same compound, the GI50 (SF-539) was 15.2 µM (inactive), the GI50 (SNB-78) was 20 µM (inactive) and the GI50 (NCI/ADR-RES) was 8.95 µM (inactive). The GI50 (EKVX) was 11.2 µM (inactive), the GI50 (LOX IMVI) was 6.52 µM (inactive) and the GI50 (RXF 631) was 11.9 µM (inactive). For the same compound, the GI50 (SNB-75) was 20.2 µM (inactive), the GI50 (T47D) was 1.84 µM (inactive) and the GI50 (NCI-H226) was 16.9 µM (inactive). For the same compound, the GI50 (MOLT-4) was 2.32 µM (inactive), the GI50 (DMS-273) was 13.6 µM (inactive) and the GI50 (SF-268) was 16 µM (inactive). The GI50 (NCI-H522) was 1.77 µM (inactive), the GI50 (KM-20L2) was 16.6 µM (inactive) and the GI50 (M19-MEL) was 6.7 µM (inactive). The GI50 (IGROV-1) was 12.5 µM (inactive), the GI50 (CAKI-1) was 17.3 µM (inactive) and the GI50 (Malme-3M) was 10.2 µM (inactive). For the same compound, the GI50 (DU-145) was 17.3 µM (inactive), the GI50 (HL-60) was 2.12 µM (inactive) and the GI50 (HCC 2998) was 14.9 µM (inactive). The GI50 (HCT-15) was 4.24 µM, the GI50 (NCI-H23) was 20.3 µM (inactive) and the GI50 (MDA-MB-435) was 7.13 µM (inactive). For the same compound, the GI50 (K562) was 2.81 µM (inactive), the GI50 (CCRF-CEM) was 2.56 µM (inactive) and the GI50 (SK-MEL-28) was 15.5 µM (inactive). For the same compound, the GI50 (SK-MEL-2) was 15.7 µM (inactive), the GI50 (OVCAR-4) was 16.8 µM (inactive) and the GI50 (SNB-19) was 9.55 µM (inactive).
